# pEC50: −log10 of the molar value.
# Tests used:
# [1] = DPPH radical-scavenging ability (RS50); assay type: biochemical; conditions: for pEC50: concentration at which DPPH radical-scavenging rate was 50%, room temperature 30 minutes, absorbance 595 nm
# Experimental: In order to evaluate the chemical antioxidant ability of the selenium-containing compound (chemical formula 4: oxidized dimer) according to one embodiment of the invention, the 1,1-diphenyl-2-picrylhydrazyl (DPPH) radical-scavenging ability was measured (Hideo Kimura, Kota Naganuma, Masato Kojima, Masakazu Komatsu, Takumi Onda, and Masao Tsuji, Yamanashi Prefectural Industrial Technology Center Report, No. 22, pp. 59-63 (2008)).
# Specifically, a selenium-containing compound (selenium content: 1.62 μM) derived from the meat of Xiphias gladius, a 10 mM aqueous solution of a water-soluble vitamin E derivative (commercially available antioxidant) (Trolox (registered trademark) (CAS No.: 56305-04-5, manufactured by Roche)), and a 4.36 mM aqueous solution of (+)-ergothioneine (CAS No.: 497-30-3, manufactured by SIGMA) were repeatedly 2-fold diluted with purified water to prepare 2 to 128-fold diluted test solutions.
# 10 μl of the test solution and 100 μl of a DPPH solution (0.35 mM, prepared by dissolving 1.38 mg of DPPH in 5 ml of ethanol, and adding 5 ml of a 0.1 M phosphate buffer (pH: 6.8) to the solution) were mixed on a 96-well micro test plate (BD Falcon (registered trademark), #1722, manufactured by Becton, and Dickinson and Company), and reacted at room temperature for 30 minutes in a dark place. The absorbance at 595 nm was then measured. A case of using purified water (absorbance: 0.59) as the test solution was determined that the DPPH radical-scavenging rate was 0%, and a case of using 10 mM Trolox (registered trademark) (absorbance: 0.19) as the test solution was determined that the DPPH radical-scavenging rate was 100%. The concentration at which the DPPH radical-scavenging rate was 50% was determined to be the RS50 of each substance, and taken as the antioxidant ability.
# rabbit red cells = assay: Active oxygen level in red cells (hydroxyphenyl fluorescein); assay type: cell-based; conditions: HPF fluorescence; versus control
# Experimental: Preserved rabbit blood (Nippon Biotest Laboratories Inc.) was washed three times with a physiological saline solution (centrifuged at 2000 rpm and 4° C. for 5 min) to collect red cells. The red cells were suspended in a 4-fold amount of an RPMI medium (GIBCO (registered trademark) RPMI Medium 1640 manufactured by Invitrogen Co.), and cultured at 37° C. for 1 day using a carbon dioxide incubator. The selenium-containing compound was added to the culture solution so that the final concentration of the selenium-containing compound in the medium was 10, 25, or 50 nM (control: the selenium-containing compound was not added), and the cells were cultured. The red cells were then collected by centrifugation (2000×g, 4° C., 5 min), washed three times with a phosphate buffered saline (PBS), and collected by centrifugation. […] The absorbance ratio at 405 nm and 430 nm before and after incubation was measured, and the rate of metmyoglobin formation of the hemoglobin was calculated.
# The active oxygen level in the red cells was also measured using hydroxyphenyl fluorescein (HPF) (manufactured by Sekisui Medical Co., Ltd.). […] The fluorescence intensity (excitation wavelength: 490 nm, fluorescence wavelength: 515 nm) due to the reaction product with active oxygen was measured, and used as an index of the active oxygen level.
# [2] = test system: hemoglobin of rabbit red cells; assay: Metmyoglobin formation inhibitory effect (hemoglobin collected from red cells); assay type: cell-based; conditions: 10, 25 or 50 nM in medium; hemoglobin solution incubated 37° C. 3 hours; versus control
# Experimental: Preserved rabbit blood (Nippon Biotest Laboratories Inc.) was washed three times with a physiological saline solution (centrifuged at 2000 rpm and 4° C. for 5 min) to collect red cells. The red cells were suspended in a 4-fold amount of an RPMI medium (GIBCO (registered trademark) RPMI Medium 1640 manufactured by Invitrogen Co.), and cultured at 37° C. for 1 day using a carbon dioxide incubator. The selenium-containing compound was added to the culture solution so that the final concentration of the selenium-containing compound in the medium was 10, 25, or 50 nM (control: the selenium-containing compound was not added), and the cells were cultured. The red cells were then collected by centrifugation (2000×g, 4° C., 5 min), washed three times with a phosphate buffered saline (PBS), and collected by centrifugation. The red cells were hemolyzed by adding a 10 mM sodium phosphate buffer (pH: 7.2) to the red cell pellets, and centrifuged (15,000×g, 4° C., 10 min). The supernatant hemoglobin solution was then collected. The hemoglobin solution was diluted with a 100-fold amount of a 50 mM sodium phosphate buffer (pH: 6.8), and incubated at 37° C. for 3 hours. The absorbance ratio at 405 nm and 430 nm before and after incubation was measured, and the rate of metmyoglobin formation of the hemoglobin was calculated.
# [3] = test system: human vessel endothelial cells; assay: Cell proliferation rate (MTT) under hydrogen peroxide oxidative stress; assay type: cell-based; conditions: 5 mM, 1 hour pre-culture, then hydrogen peroxide 25 or 50 μM, 24 hours
# Experimental: The in vivo antioxidant effect of the selenium-containing compound (chemical formula 4: oxidized dimer) according to one embodiment of the invention was determined using human vessel endothelial cells. Specifically, human vessel endothelial cells (10,000 cells/ml) were cultured on a 48-well plate using an MCDB131 medium containing 10% fetal bovine serum. The selenium-containing compound was added to the culture solution so that the final concentration was 5 mM (control: the selenium-containing compound was not added), and the cells were cultured at 37° C. for 1 hour under 5% carbon dioxide. After the addition of hydrogen peroxide to a final concentration of 25 or 50 μM, the cells were cultured at 37° C. for 24 hours under 5% carbon dioxide. The cell proliferation rate was then determined by the MTT assay. […] Specifically, it was confirmed that the selenium-containing compound (chemical formula 4: oxidized dimer) according to one embodiment of the invention has an in vivo antioxidant effect.
# [4] = test system: human vessel endothelial cells (human umbilical cord vein HUV-EC-C); assay: MTT assay of human vessel endothelial cells cultured with selenium compounds; assay type: cell-based
# Experimental: In order to clarify the intracellular function of the selenium-containing compound (chemical formula 4: oxidized dimer) according to one embodiment of the invention, the selenium-containing compound (chemical formula 4: oxidized dimer) according to one embodiment of the invention was administered to human vessel endothelial cells (human umbilical cord vein HUV-EC-C, Health Science Research Resources Bank (http://www.jhsf.or.jp)).
# Specifically, human vessel endothelial cells (10,000 cells/ml) were cultured on a 48-well plate using an MCDB131 medium (manufactured by Invitrogen) containing 10% fetal bovine serum. […] The passage number was set to 5 or less in order to maintain the properties of the human vessel endothelial cells.
# The mitochondrial respiratory chain activity was determined using an MTT assay kit (manufactured by Nacalai Tesque, Inc.). Specifically, after culturing the human vessel endothelial cells, an MTT solution was added to the culture solution in an amount 1/10th of that of the culture solution, and the cells were cultured at 37° C. for 3 hours under 5% carbon dioxide. An equal amount of isopropanol was then added to the culture solution to extract a formazan dye, and the absorbance at 595 nm was determined.
# [5] = test system: AT cells derived from the skin of a human patient with ataxia telangiectasia syndrome (AT2KY); assay: Cell proliferation-promoting effect on AT cells (cell count by trypan blue staining); assay type: cell-based; conditions: 0-100 nM, 37° C., 0-5 days
# Experimental: (§1) AT cells derived from the skin of a human patient with ataxia telangiectasia syndrome (AT2KY, Health Science Research Resources Bank, JCRB0316), human skin TIG-S3 cells (Health Science Research Resources Bank, JCRB0544), and human kidney HEK293 cells (Health Science Research Resources Bank, JCRB9068) were cultured in a DMEM medium containing 10% fetal bovine serum (15,000 cells/ml).
# The selenium-containing compound was added to each culture medium (containing 2% serum) so that the final concentration was 0, 5, 10, 25, 50, or 100 nM. The Danio rerio embryo ZE cells were cultured at 25° C., the Seriola quinqueradiata tail fin YT cells were cultured at 20° C., and Oncorhynchus mykiss gonad RTG-2 cells were cultured at 15° C., and the human vessel endothelial cells, the AT cells derived from the skin of a human patient with ataxia telangiectasia syndrome, the human skin TIG-S3 cells, and the human kidney HEK293 cells were cultured at 37° C. The cell count was determined by trypan blue staining after culturing the cells for 0, 1, 2, 3, 4, and 5 days. […]
# [6] = test system: animal cells (ZE, YT, RTG-2, HUV-EC-C, AT2KY, TIG-S3, HEK293 cells); assay: Cell proliferation-promoting effect on cultured cells (cell count by trypan blue staining); assay type: cell-based; conditions: 0-100 nM, 0-5 days, fish and human cell lines
# Experimental: Specifically, Danio rerio embryo ZE cells (National Research Institute of Fisheries Science), Seriola quinqueradiata tail fin YT cells (National Research Institute of Fisheries Science), and Oncorhynchus mykiss gonad RTG-2 cells (ATCCCCL55) were cultured in an L-15 medium containing 2% fetal bovine serum (30,000 cells/ml).
# Human vessel endothelial cells (human umbilical cord vein HUV-EC-C, Health Science Research Resources Bank (http://www.jhsf.or.jp)) were cultured in an MCDB131 medium containing 10% fetal bovine serum (10,000 cells/ml).
# as §1
# The selenium-containing compound was added to each culture medium (containing 2% serum) so that the final concentration was 0, 5, 10, 25, 50, or 100 nM. […] The cell count was determined by trypan blue staining after culturing the cells for 0, 1, 2, 3, 4, and 5 days.
# [7] = test system: heme protein (myoglobin, hemoglobin); assay: Heme iron binding effect (Se/Fe determination in heme proteins); design: species or system Thunnus orientalis, rabbit, Physeter macrocephalus; conditions: Se/Fe molar ratio of purified myoglobin and hemoglobin 0.003, 0.0003, 0.001
# Experimental: Since it was confirmed that the selenium-containing compound has a heme protein auto-oxidation inhibitory effect (see “5. Metmyoglobin formation inhibitory effect of selenium-containing compound”), the binding capability of the selenium-containing compound with heme proteins was determined. Physeter macrocephalus (sperm whale) myoglobin available from SIGMA was used. 100 g of the dark muscle of Thunnus orientalis was mixed with a 5-fold amount of cold water, ground using a POLYTRON™ homogenizer, and centrifuged (6000×g, 10 min). The supernatant liquid was collected, and passed through a Sephacryl-100 column (16 mm×60 cm, manufactured by Pharmacia) that was equilibrated with a 0.05 M Tris-HCl buffer (pH: 7) containing 0.1 M salt to purify myoglobin derived from the dark muscle of Thunnus orientalis. […]
# The selenium content in the Physeter macrocephalus myoglobin, the Thunnus orientalis myoglobin, the rabbit hemoglobin, and the Thunnus orientalis hemoglobin was measured. Selenium was detected from each sample. The elements contained in the Physeter macrocephalus myoglobin were measured by HPLC-ICP-MS.
# The sample was wet-decomposed using nitric acid and hydrogen peroxide. Iron was quantitatively determined using an inductively coupled plasma atomic emission spectrometer (ICP-AES) (“ICPE-9000” manufactured by Shimadzu Corporation), and selenium was quantitatively determined by fluorometry. […]
# [8] = Solubility (physico-chemical properties); assay type: physicochemical; conditions: solvents as named in the value
structure (smiles),measurement,setting,value
"C[N+](C)(C)[C@@H](Cc1c[nH]c(=S)[nH]1)C(=O)[O-] [L-(+)-ergothioneine, reference compound]",pEC50,[1],2.77
"Cc1c(C)c2c(c(C)c1O)CCC(C)(C(=O)O)O2 (stereo not shown) [Trolox, 6-hydroxy-2,5,7,8-tetrametylchroman-2-carboxylic acid, reference compound]",pEC50,[1],3.06
"C[N+](C)(C)C(Cc1cnc([Se][Se]c2ncc(CC(C(=O)[O-])[N+](C)(C)C)[nH]2)[nH]1)C(=O)[O-] (stereo not shown) [chemical formula 4, 3,3′-(2,2′-diselanediylbis(1H-imidazole-5,2-diyl))bis(2-(trimethylammonio)propanoate)]",active oxygen level in the red cells,rabbit red cells,lower than that of the control
same,rate of metmyoglobin formation of hemoglobin,[2],lower than that of the control
same,cellular proliferative potential under oxidative stress,[3],improved
same,effect on cell proliferation (MTT),"[4]; 5 mM, 24 hours, 37° C.",cell proliferation-promoting effect
same,cytotoxicity compared with known selenium-containing compounds,"[4]; versus selenious acid, selenocystine, selenomethionine",very low cytotoxicity
same,proliferation of AT cells,[5],effect of promoting proliferation of the AT cells
same,cell proliferation (cell count),[6],significantly promotes proliferation of animal cells
same,"concentration giving radical-scavenging ability equal to L-(+)-ergothioneine, as fraction of ergothioneine concentration","[1]; DPPH, relative to L-(+)-ergothioneine",1/907
same,"concentration giving radical-scavenging ability equal to Trolox, as fraction of Trolox concentration","[1]; DPPH, relative to water-soluble vitamin E derivative (Trolox)",1/456
same,radical-scavenging ability higher than Trolox by a factor,"[1]; chemical test, relative to Trolox",about 500
same,pEC50,[1],5.72
same,binding to heme protein,[7],bound to a heme protein
same,Solubility,[8]; in acetone and acetonitrile,scarcely soluble in acetone and acetonitrile
same,Solubility,"[8]; in water, ethanol and methanol","Soluble in water, ethanol, and methanol;"
N[C@@H](C[Se][Se]C[C@H](N)C(=O)O)C(=O)O [selenocystine],effect on cell proliferation (MTT),[4]; 5 nM added to culture medium,cell death occurred
C[Se]CC[C@H](N)C(=O)O [selenomethionine],effect on cell proliferation (MTT),[4]; 5 nM added to culture medium,cell death occurred
O=[Se](O)O [sodium selenite],effect on cell proliferation (MTT),[4]; 5 nM added to culture medium,cell death occurred

# From patent US9753018B2, “Selenium-containing compound” (Fisheries Research Agency, priority 2009, dated 2017)
